Assay results taken from patent publication US20140045823A1 (Neurocrine Biosciences, Inc., priority 2012, published 2014).

biological target: T1, human GPR119 (Homo sapiens, UniProt Q8TDV5); assay: AlphaScreen cAMP assay in MIN6 cells stably transfected with human GPR119; type: cell-based; conditions: Min-6/hGPR119 cells, 45 min at room temperature
T1 construct: expression vector for human GPR119 cDNA (Acc. No. NP_848566); expressed in transfected cells; Min-6/hGPR119
T1 sequence (Q8TDV5 1-335): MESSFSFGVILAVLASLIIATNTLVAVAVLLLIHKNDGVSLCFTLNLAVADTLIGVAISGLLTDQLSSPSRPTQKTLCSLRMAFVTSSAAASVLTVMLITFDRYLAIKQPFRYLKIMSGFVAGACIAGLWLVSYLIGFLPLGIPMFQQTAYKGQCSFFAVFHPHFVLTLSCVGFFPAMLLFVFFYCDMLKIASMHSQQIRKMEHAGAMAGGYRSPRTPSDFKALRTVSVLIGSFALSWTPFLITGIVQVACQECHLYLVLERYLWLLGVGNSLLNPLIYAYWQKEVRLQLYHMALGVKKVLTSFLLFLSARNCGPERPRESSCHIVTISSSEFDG
Method: The compounds of formula I according to the invention modulate the activity of the G-protein-coupled receptor GPR119. The effect of the compounds on the activation of GPR119 and on the stimulation of intracellular cAMP concentration is determined using the AlphaScreen cAMP Assay Kit (Cat. No. #6760625R) made by PerkinElmer.
MIN6 cells [Miyazaki J et al. Endocrinology. 1990 July; 127(1):126-32] are stably transfected with an expression vector for human GPR119 cDNA (Acc. No. NP_848566). Min-6/hGPR119 cells are cultured in DMEM, 10% FBS, 50 μM β-mercaptoethanol, 0.3 mg/mL Geniticin, 2 mM GlutaMAX at 37° C. 5% CO2. For the assay, the cells are seeded in Optiplates (white, 384-well, 160 W—barcoded, TC, sterile with lid, Cat. No. #6007688 (Perkin Elmer); 10000 cells/well; 50 μl). The plates covered with lids are then incubated for 24 hours at 37° C./5% CO2. After the medium is aspirated from the wells completely, 10 μl of the test compound are added, the compounds are diluted using stimulating buffer (140 mM NaCl, 3.6 mM KCl, 0.5 mM NaH2PO4, 0.5 mM MgSO4, 1.5 mM CaCl2, 10 mM Hepes, 5 mM NaHCO3; pH 7.4. 0.5 mM IBMX and 0.1% BSA, the final DMSO concentration is 1%). After 45 minutes incubation at room temperature (approx. 20° C.), the cAMP concentrations are determined using the AlphaScreen cAMP Assay Kit (Cat. No. #6760625R from PerkinElmer).

Row | Structure (SMILES) | EC50 [nM]
1 | CC(C)(C)OC(=O)N1CCC(N(C(=O)c2csc(-c3ccc(C#N)cc3)n2)C2CC2)CC1 [Example 47, 4-{[2-(4-Cyano-phenyl)-thiazole-4-carbonyl]-cyclopropyl-amino}-piperidine-1-carboxylic acid tert-butyl ester] | 1860
2 | Cc1nc(-c2ccc(C#N)cc2F)sc1C(=O)N(C1CC1)C1CCN(C(=O)OC(C)(C)C)CC1 [Example 48, 4-{[2-(4-Cyano-2-fluoro-phenyl)-4-methyl-thiazole-5-carbonyl]-cyclopropyl-amino}-piperidine-1-carboxylic acid tert-butyl ester] | 1340
3 | CC(C)(C)OC(=O)N1CCC(N(C(=O)c2ncn(-c3ccc(C#N)cc3F)n2)C2CC2)CC1 [Example 49, 4-{[1-(4-Cyano-2-fluoro-phenyl)-1H-[1,2,4]triazole-3-carbonyl]-cyclopropyl-amino}-piperidine-1-carboxylic acid tert-butyl ester] | 149
4 | CC(C)(C)OC(=O)N1CCC(N(C(=O)c2ncn(-c3ccc(C#N)cc3)n2)C2CC2)CC1 [Example 50, 4-{[1-(4-Cyano-phenyl)-1H-[1,2,4]triazole-3-carbonyl]-cyclopropyl-amino}-piperidine-1-carboxylic acid tert-butyl ester] | 505
5 | CC(C)OC(=O)N1CCC(N(C(=O)c2cnc(-n3ccnc3)nc2)C2CC2)CC1 [Example 51, 4-[Cyclopropyl-(2-imidazol-1-yl-pyrimidine-5-carbonyl)-amino]-piperidine-1-carboxylic acid isopropyl ester] | 140
6 | CCc1nccn1-c1ncc(C(=O)N(C2CC2)C2CCN(C(=O)OC(C)C)CC2)cn1 [Example 52, 4-{Cyclopropyl-[2-(2-ethyl-imidazol-1-yl)-pyrimidine-5-carbonyl]-amino}-piperidine-1-carboxylic acid isopropyl ester] | 211
7 | CC(C)OC(=O)N1CCC(N(C(=O)c2cnc(-c3ccc(S(C)(=O)=O)cc3)nc2)C2CC2)CC1 [Example 53, 4-{Cyclopropyl-[2-(4-methanesulfonyl-phenyl)-pyrimidine-5-carbonyl]-amino}-piperidine-1-carboxylic acid isopropyl ester] | 120
8 | Cc1nccn1-c1ncc(C(=O)N(C2CC2)C2CCN(C(=O)OC(C)C)CC2)cn1 [Example 54, 4-{Cyclopropyl-[2-(2-methyl-imidazol-1-yl)-pyrimidine-5-carbonyl]-amino}-piperidine-1-carboxylic acid isopropyl ester] | 129
9 | Cc1nccn1-c1ncc(C(=O)N(C2CC2)C2CCN(C(=O)OC3(C)CC3)CC2)cn1 [Example 55, 4-{Cyclopropyl-[2-(2-methyl-imidazol-1-yl)-pyrimidine-5-carbonyl]-amino}-piperidine-1-carboxylic acid 1-methyl-cyclopropyl ester] | 106
10 | CC(C)(C)OC(=O)N1CCC(N(C(=O)c2cnc(-n3cccn3)nc2)C2CC2)CC1 [Example 56, 4-[Cyclopropyl-(2-pyrazol-1-yl-pyrimidine-5-carbonyl)-amino]-piperidine-1-carboxylic acid tert-butyl ester] | 2780
11 | Cc1cc(C)n(-c2ncc(C(=O)N(C3CC3)C3CCN(C(=O)OC(C)(C)C)CC3)cn2)n1 [Example 57, 4-{Cyclopropyl-[2-(3,5-dimethyl-pyrazol-1-yl)-pyrimidine-5-carbonyl]-amino}-piperidine-1-carboxylic acid tert-butyl ester] | 3750
12 | CC(C)(C)OC(=O)N1CCC(N(C(=O)c2cnc(-n3cc(CCO)cn3)nc2)C2CC2)CC1 [Example 58, 4-(Cyclopropyl-{2-[4-(2-hydroxy-ethyl)-pyrazol-1-yl]-pyrimidine-5-carbonyl}-amino)-piperidine-1-carboxylic acid tert-butyl ester] | 2200
13 | CCOc1ccc(-c2ncc(C(=O)N(C3CC3)C3CCN(C(=O)OC(C)C)CC3)cn2)cn1 [Example 59, 4-{Cyclopropyl-[2-(6-ethoxy-pyridin-3-yl)-pyrimidine-5-carbonyl]-amino}-piperidine-1-carboxylic acid isopropyl ester] | 167
14 | CC(C)OC(=O)N1CCC(N(C(=O)c2cnc(-c3ccc(CC#N)cc3)nc2)C2CC2)CC1 [Example 60, 4-{[2-(4-Cyanomethyl-phenyl)-pyrimidine-5-carbonyl]-cyclopropyl-amino}-piperidine-1-carboxylic acid isopropyl ester] | 76
15 | CC(C)OC(=O)N1CCC(N(C(=O)c2cnc(-c3ccc(C#N)c(F)c3)nc2)C2CC2)CC1 [Example 61, 4-{[2-(4-Cyano-3-fluoro-phenyl)-pyrimidine-5-carbonyl]-cyclopropyl-amino}-piperidine-1-carboxylic acid isopropyl ester] | 13
16 | CC(C)(C)OC(=O)N1CCC(N(C(=O)c2ccc(-c3cccc([N+](=O)[O-])c3)o2)C2CC2)CC1 [Example 62, 4-{Cyclopropyl-[5-(3-nitro-phenyl)-furan-2-carbonyl]-amino}-piperidine-1-carboxylic acid tert-butyl ester] | 786
17 | CC(C)(C)OC(=O)N1CCC(N(C(=O)c2cnc(-c3ccncc3)nc2)C2CC2)CC1 [Example 63, 4-[Cyclopropyl-(2-pyridin-4-yl-pyrimidine-5-carbonyl)-amino]-piperidine-1-carboxylic acid tert-butyl ester] | 42
18 | CC(C)(C)OC(=O)N1CCC(N(C(=O)c2cc(-c3cccc([N+](=O)[O-])c3)[nH]n2)C2CC2)CC1 [Example 64, 4-{Cyclopropyl-[5-(3-nitro-phenyl)-1H-pyrazole-3-carbonyl]-amino}-piperidine-1-carboxylic acid tert-butyl ester] | 934
19 | CC(C)(C)OC(=O)N1CCC(N(C(=O)c2cc(-c3ccc([N+](=O)[O-])cc3)[nH]n2)C2CC2)CC1 [Example 65, 4-{Cyclopropyl-[5-(4-nitro-phenyl)-1H-pyrazole-3-carbonyl]-amino}-piperidine-1-carboxylic acid tert-butyl ester] | 1170
20 | CC(C)(C)OC(=O)N1CCC(N(C(=O)c2ncc(-c3ccc(C#N)c(F)c3)cn2)C2CC2)CC1 [Example 66, 4-{[5-(4-Cyano-3-fluoro-phenyl)-pyrimidine-2-carbonyl]-cyclopropyl-amino}-piperidine-1-carboxylic acid tert-butyl ester] | 636
21 | CC(C)(C)OC(=O)N1CCC(N(C(=O)c2ncc(-c3ccc(CC#N)cc3)cn2)C2CC2)CC1 [Example 67] | 219
22 | CC(C)(C)OC(=O)N1CCC(N(C(=O)c2ncc(-c3ccc(S(C)(=O)=O)cc3)cn2)C2CC2)CC1 [Example 68, 4-{Cyclopropyl-[5-(4-methanesulfonyl-phenyl)-pyrimidine-2-carbonyl]-amino}-piperidine-1-carboxylic acid tert-butyl ester] | 544
23 | CC(C)(C)OC(=O)N1CCC(N(C(=O)c2ncc(-c3ccc(C#N)nc3)cn2)C2CC2)CC1 [Example 69, 4-{[5-(6-Cyano-pyridin-3-yl)-pyrimidine-2-carbonyl]-cyclopropyl-amino}-piperidine-1-carboxylic acid tert-butyl ester] | 1120
24 | CC(C)(C)OC(=O)N1CCC(N(C(=O)c2cnc(-c3cccnc3)nc2)C2CC2)CC1 [Example 70, 4-[Cyclopropyl-(2-pyridin-3-yl-pyrimidine-5-carbonyl)-amino]-piperidine-1-carboxylic acid tert-butyl ester] | 489
25 | CC(C)(C)OC(=O)N1CCC(N(C(=O)c2cnc(-c3cncnc3)nc2)C2CC2)CC1 [Example 71, 4-[([2,5′]Bipyrimidinyl-5-carbonyl)-cyclopropyl-amino]-piperidine-1-carboxylic acid tert-butyl ester] | 90
26 | CC(C)(C)OC(=O)N1CCC(N(C(=O)c2cnc(-c3ccc(C#N)cc3)nc2)C2CC2)CC1 [Example 72, 4-{[2-(4-Cyano-phenyl)-pyrimidine-5-carbonyl]-cyclopropyl-amino}-piperidine-1-carboxylic acid tert-butyl ester] | 14
27 | COc1ccccc1-c1ncc(C(=O)N(C2CC2)C2CCN(C(=O)OC(C)(C)C)CC2)cn1 [Example 73, 4-{Cyclopropyl-[2-(2-methoxy-phenyl)-pyrimidine-5-carbonyl]-amino}-piperidine-1-carboxylic acid tert-butyl ester] | 1670
28 | COc1cccc(-c2ncc(C(=O)N(C3CC3)C3CCN(C(=O)OC(C)(C)C)CC3)cn2)c1 [Example 74, 4-{Cyclopropyl-[2-(3-methoxy-phenyl)-pyrimidine-5-carbonyl]-amino}-piperidine-1-carboxylic acid tert-butyl ester] | 1010
